Common to all, as to assay type: functional
In test [1] the test system is PANC-1. The test is described as follows: Preferential cytotoxicity against human PANC-1 cells in nutrient-deprived medium.
Test [2] relates to PANC-1. The test is described as follows: Inhibition of colony formation in human PANC1 cells assessed as colony area at 20 uM incubated for 24 hrs in normal nutrient DMEM media followed by replacement with fresh media and further incubated for 10 days (reference value: 52%). Details: scale not given: the % may be the effect or the level left.
The test system of test [3] is PANC-1. The test is described as follows: Inhibition of colony formation in human PANC1 cells assessed as colony area at 40 uM incubated for 24 hrs in normal nutrient DMEM media followed by replacement with fresh media and further incubated for 10 days (reference value: 52%). The arrangement: scale not given: the % may be the effect or the level left.
The test system of test [4] is PANC-1. The test is described as follows: Induction of cell death in human PANC-1 cells assessed as increase in cells emitting red fluorescence incubated for 24 hrs in nutrient-deprived medium by ethidium bromide/acridine orange staining based analysis. Conditions: dose 10-20 µM.
Test [5] concerns PANC-1. The test is described as follows: Induction of cell death in human PANC-1 cells assessed as alteration in cell morphology incubated for 24 hrs in nutrient-deprived medium by ethidium bromide/acridine orange staining based analysis. Particulars: dose 10-20 µM.
Test [6] concerns PANC-1. The test is described as follows: Inhibition of colony formation in human PANC1 cells assessed as colony area at 10 uM incubated for 24 hrs in normal nutrient DMEM media followed by replacement with fresh media and further incubated for 10 days (reference value: 52%). The arrangement: scale not given: the % may be the effect or the level left.

For `COc1cccc2cc(C)c(-c3ccc4c(c3O)C(C)=N[C@H](C)C4)c(O)c12`, the PC50 with PANC-1 [1] turned out to be 7.4 µM. The Activity is 38% with PANC-1 [2]; 24% in the test with PANC-1 [3]; “Dose-Dependent Effect” with PANC-1 [4]; “Dose-Dependent Effect” in the test on PANC-1 [5]; 47% in the test with PANC-1 [6].

The record behind these values is ChEMBL document CHEMBL5252614, “Dioncophyllidine E: The first configurationally semi-stable, 7,3'-coupled naphthyldihydroisoquinoline alkaloid, from Ancistrocladus abbreviatus, with antiausterity activity against PANC-1 human pancreatic cancer cells” (2023).
